From US20220031625A1, “OPHTHALMIC COMPOSITIONS FOR DELIVERING MEIBUM-LIKE MATERIALS” (Altaire Pharmaceuticals, Inc., priority 2020, published 2022) come the findings set out here.

This data set concerns normal human keratinocytes/stratified squamous epithelium (EPIOCULAR model). The experiment in a line: Ocular irritation test - MTT assay on EPIOCULAR model. The format is cell-based. On the procedure: Another Ocular Irritation Study was done by exposing a microemulsion containing polyoxyl 35 castor oil in accordance with an embodiment of the present disclosure onto normal human keratinocytes/stratified squamous epithelium which is similar to that found in the cornea epithelium of the human eye (EPIOCULAR model), and then checking tissue viability with MTT assay for cytoxicity after incubation in comparison with a water control (Cyprotex). The study design and results are summarized below in Table 7.
Background: Tetrazolium dyes change colour on reduction, which living cells bring about.

In the case of `COC(C)=O` [Methyl Acetate], the “Irritation Response (Irritant if ≤60%)” value (EPIOCULAR model) is recorded as “Positive”. For the same molecule, the “Mean Tissue Viability” value (in comparison with a water control) is listed as 31.1%.
